The Ki is the dissociation constant of the complex between target and ligand, obtained from inhibition or displacement. The IC50 is the concentration at which inhibition is half-maximal.

One data set addresses CDK1/cyclin B (Homo sapiens, UniProt P06493). Briefly: Kinase assay CDK1/cyclin B (radioactive phosphate incorporation). It is filed as biochemical. Particulars: Ki calculated (Cheng-Prusoff) from experimentally determined IC50 and Km,ATP; read-out: Kinase Inhibition Ki CDK1 - cyclin B. A digest of the protocol: (§1)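 Radiometric assays measured transfer of radioactive phosphate from ATP onto polypeptide substrates, using 2-4 μg recombinant active enzyme in buffer typically containing 25 mM β-glycerophosphate, 20 mM MOPS, 5 mM EGTA, 1 mM DTT and 1 mM Na3VO3 at pH 7.4. Reactions were stopped on ice, filtered on P81 or GF/C plates and washed with orthophosphoric acid. Incorporated radioactivity was scintillation-counted.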

The next data set has as its target CDK7/cyclin H (Homo sapiens, UniProt P50613). Briefly: Kinase assay CDK7/cyclin H. It is filed as biochemical. Particulars: Ki calculated (Cheng-Prusoff) from experimentally determined IC50 and Km,ATP; read-out: Kinase Inhibition Ki CDK7 - cyclin H. A digest of the protocol: (§2)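 Radiometric filter assays used recombinant kinases or complexes (2-4 μg) with appropriate polypeptide substrates in pH 7.4 β-glycerophosphate/MOPS buffer. Reactions were started with 15 mM MgCl2 and 100 μM ATP containing [γ-32P]-ATP and run at 30° C. Phosphate incorporated into substrate was counted by scintillation after washing.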

The target in another data set is CDK9/cyclin T1 (Homo sapiens, UniProt P50750). The data set can be described thus: Kinase assay CDK9/cyclin T1. It is filed as biochemical. Particulars: Ki calculated (Cheng-Prusoff) from experimentally determined IC50 and Km,ATP; read-out: Kinase Inhibition Ki CDK9 - cyclin T1. A digest of the protocol: as §2
CDK9/cyclin T1, sequence (P50750 whole entry, species assumed): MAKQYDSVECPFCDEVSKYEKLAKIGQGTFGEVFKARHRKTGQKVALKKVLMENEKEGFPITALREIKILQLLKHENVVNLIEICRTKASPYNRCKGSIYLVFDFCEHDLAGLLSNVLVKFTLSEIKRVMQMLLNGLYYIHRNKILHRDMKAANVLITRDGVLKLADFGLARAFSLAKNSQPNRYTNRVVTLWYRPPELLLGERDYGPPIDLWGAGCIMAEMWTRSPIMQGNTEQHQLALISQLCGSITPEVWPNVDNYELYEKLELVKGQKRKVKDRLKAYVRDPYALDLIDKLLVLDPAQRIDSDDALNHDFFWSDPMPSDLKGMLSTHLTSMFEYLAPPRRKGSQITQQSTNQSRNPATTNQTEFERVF
CDK9/cyclin T1, sequence (O60563 whole entry partner, species assumed): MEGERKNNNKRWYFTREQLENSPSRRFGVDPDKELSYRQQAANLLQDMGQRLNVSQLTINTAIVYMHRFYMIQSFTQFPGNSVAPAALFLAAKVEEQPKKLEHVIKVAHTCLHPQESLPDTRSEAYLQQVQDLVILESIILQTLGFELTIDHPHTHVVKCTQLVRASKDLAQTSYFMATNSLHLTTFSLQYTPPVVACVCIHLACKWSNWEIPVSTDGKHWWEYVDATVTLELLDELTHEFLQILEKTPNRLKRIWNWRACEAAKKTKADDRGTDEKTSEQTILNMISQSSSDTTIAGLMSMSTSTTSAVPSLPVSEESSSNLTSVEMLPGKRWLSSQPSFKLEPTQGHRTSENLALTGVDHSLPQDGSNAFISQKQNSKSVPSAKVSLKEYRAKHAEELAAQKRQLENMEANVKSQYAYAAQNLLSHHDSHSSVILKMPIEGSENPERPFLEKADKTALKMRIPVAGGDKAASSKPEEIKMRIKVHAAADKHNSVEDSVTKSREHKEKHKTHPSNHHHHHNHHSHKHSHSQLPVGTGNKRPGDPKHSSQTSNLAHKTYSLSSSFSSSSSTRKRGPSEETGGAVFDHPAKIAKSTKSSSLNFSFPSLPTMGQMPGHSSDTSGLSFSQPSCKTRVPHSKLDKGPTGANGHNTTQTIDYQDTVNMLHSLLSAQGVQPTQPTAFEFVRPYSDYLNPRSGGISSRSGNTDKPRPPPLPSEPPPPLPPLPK
The next data set concerns the target CDK4/cyclin D1 (Homo sapiens, UniProt P11802). The data set can be described thus: Kinase assay CDK4/cyclin D1. Particulars: Ki calculated (Cheng-Prusoff) from experimentally determined IC50 and Km,ATP; read-out: Kinase Inhibition Ki CDK4 - cyclin D1. It is filed as biochemical. In short, it runs like this: as §2
The next data set addresses T1, GSK3β (Homo sapiens, UniProt P49841).
T1 construct: purchased New England Biolabs
Briefly: GSK3β in vitro kinase assay. It is filed as biochemical. The settings on record: recombinant human GSK3β, 100 μM ATP. In short, it runs like this: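 Radiometric filter-binding assay with GSK3β (1.5 units), 200 μM CREB phosphopeptide, 100 μM ATP plus [γ-32P]ATP, in 20 mM Tris HCl pH7.5, 5 mM DTT, 15 mM MgCl2, 2% DMSO; 30 min at 30° C, stopped with phosphoric acid. 32P incorporation counted by scintillation; IC50 from 10-point titration.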

In the next data set the target is CDK2/cyclin E (Homo sapiens, UniProt P24941). The data set can be described thus: Kinase assay CDK2/cyclin E. Particulars: Ki calculated (Cheng-Prusoff) from experimentally determined IC50 and Km,ATP; read-out: Kinase Inhibition Ki CDK2 - cyclin E. It is filed as biochemical. A digest of the protocol:
as §1

A further data set deals with CDK2/cyclin A (Homo sapiens, UniProt P24941). The data set can be described thus: Kinase assay CDK2/cyclin A. It is filed as biochemical. The settings on record: Ki calculated (Cheng-Prusoff) from experimentally determined IC50 and Km,ATP; read-out: Kinase Inhibition Ki CDK2 - cyclin A. In short, it runs like this: as §1
The subject of the next data set is HIV-1. The settings on record: HIV-1 in human PBMCs, seven days following infection.
The next data set addresses T2, aurora A (Homo sapiens, UniProt O14965).
T2 sequence (O14965 1-403): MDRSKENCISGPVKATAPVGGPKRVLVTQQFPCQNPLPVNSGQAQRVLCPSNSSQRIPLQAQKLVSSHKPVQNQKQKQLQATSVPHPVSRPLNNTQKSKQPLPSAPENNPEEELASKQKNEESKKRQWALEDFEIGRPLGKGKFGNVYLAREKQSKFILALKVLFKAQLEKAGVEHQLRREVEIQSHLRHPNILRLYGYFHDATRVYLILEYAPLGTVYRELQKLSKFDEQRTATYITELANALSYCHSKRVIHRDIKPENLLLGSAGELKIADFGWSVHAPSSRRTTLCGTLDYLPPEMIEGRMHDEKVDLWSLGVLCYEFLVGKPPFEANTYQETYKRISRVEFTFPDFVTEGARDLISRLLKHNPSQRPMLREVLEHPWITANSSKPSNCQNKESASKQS
Briefly: Kinase assay aurora A. It is filed as biochemical. Particulars: Ki calculated (Cheng-Prusoff) from experimentally determined IC50 and Km,ATP; read-out: Kinase Inhibition Ki Aurora A. How it is done: The compounds from the examples above were investigated for their ability to inhibit the enzymatic activity of various protein kinases. This was achieved by measurement of incorporation of radioactive phosphate from ATP into appropriate polypeptide substrates. Recombinant protein kinases and kinase complexes were produced or obtained commercially. Assays were performed using 96-well plates and appropriate assay buffers (typically 25 mM β-glycerophosphate, 20 mM MOPS, 5 mM EGTA, 1 mM DTT, 1 mM […], pH 7.4), into which were added 2-4 μg of active enzyme with appropriate substrates. […] Reactions were stopped on ice, followed by filtration through p81 filterplates or GF/C filterplates (Whatman Polyfiltronics, Kent, UK). After washing 3 times with 75 mM aq orthophosphoric acid, plates were dried, scintillant added and incorporated radioactivity measured in a scintillation counter (TopCount, Packard Instruments, Pangbourne, Berks, UK). Compounds for kinase assay were made up as 10 mM stocks in DMSO and diluted into 10% DMSO in assay buffer.

Another data set concerns the target T3, GSK3α (Homo sapiens, UniProt P49840).
T3 construct: purchased Upstate
The data set can be described thus: GSK3α in vitro kinase assay. It is filed as biochemical. Particulars: recombinant human GSK3α, 100 μM ATP. How it is done: Both isoforms of GSK3 (α and β) are involved in the regulation of glycogen synthase activity—key enzyme in the glycogen metabolism. The inhibitory potency of example compounds was determined using in vitro kinase assays with recombinant human GSK3-α and -β; the IC50 values determined are presented in Table 9.
A 10-point titration was set up to determine the IC50 values of selected example compounds against GSK3β. Assays were performed using 96-well microtiter plates with a final volume of 25 μL per well. Each assay contained 1.5 units of GSK3β(New England Biolabs), 200 μM CREB phosphopeptide ([…]pSYR, Alta Biosciences), 20 mM Tris HCl pH7.5, 5 mM DTT, 15 mM MgCl2 supplemented with 100 μM ATP and 0.5 μCi of [γ-^32P] ATP plus or minus inhibitor in 2% DMSO. Assays were carried out for 30 minutes at 30° C. before stopping the reaction by the addition of an equal volume of 75 mM aqueous phosphoric acid. Samples were then spotted onto a p81 filterplate (Whatman) and a vacuum was applied. Wells were washed 3 times with 200 μL of dilute aqueous phosphoric acid before the addition of 50 μL Microscint 40 per well. Incorporation of radioactivity was determined on a Topcount microplate scintillation counter (Packard).
GSK3α (Upstate) was assayed exactly as described above except that 1 ng of enzyme was added per assay point.

CDK4/cyclin D1, sequence (P11802 whole entry, species assumed): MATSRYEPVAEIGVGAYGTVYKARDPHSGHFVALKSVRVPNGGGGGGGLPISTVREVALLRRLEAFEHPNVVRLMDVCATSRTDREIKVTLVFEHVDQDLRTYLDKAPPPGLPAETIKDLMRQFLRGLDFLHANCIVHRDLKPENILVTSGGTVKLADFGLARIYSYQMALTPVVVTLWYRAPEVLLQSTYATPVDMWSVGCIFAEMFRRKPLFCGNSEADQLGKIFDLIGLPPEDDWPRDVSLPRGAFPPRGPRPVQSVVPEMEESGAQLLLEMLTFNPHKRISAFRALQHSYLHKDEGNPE
CDK4/cyclin D1, sequence (P24385 whole entry partner, species assumed): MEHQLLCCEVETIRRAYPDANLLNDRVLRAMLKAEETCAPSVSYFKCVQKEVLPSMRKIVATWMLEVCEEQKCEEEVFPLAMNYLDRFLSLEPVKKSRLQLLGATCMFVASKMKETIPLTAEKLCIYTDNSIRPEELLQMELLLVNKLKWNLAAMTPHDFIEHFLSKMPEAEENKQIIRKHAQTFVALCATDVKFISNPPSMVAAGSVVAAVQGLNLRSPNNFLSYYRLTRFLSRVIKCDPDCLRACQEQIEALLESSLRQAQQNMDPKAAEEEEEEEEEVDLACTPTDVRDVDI
T1 sequence (P49841 whole entry): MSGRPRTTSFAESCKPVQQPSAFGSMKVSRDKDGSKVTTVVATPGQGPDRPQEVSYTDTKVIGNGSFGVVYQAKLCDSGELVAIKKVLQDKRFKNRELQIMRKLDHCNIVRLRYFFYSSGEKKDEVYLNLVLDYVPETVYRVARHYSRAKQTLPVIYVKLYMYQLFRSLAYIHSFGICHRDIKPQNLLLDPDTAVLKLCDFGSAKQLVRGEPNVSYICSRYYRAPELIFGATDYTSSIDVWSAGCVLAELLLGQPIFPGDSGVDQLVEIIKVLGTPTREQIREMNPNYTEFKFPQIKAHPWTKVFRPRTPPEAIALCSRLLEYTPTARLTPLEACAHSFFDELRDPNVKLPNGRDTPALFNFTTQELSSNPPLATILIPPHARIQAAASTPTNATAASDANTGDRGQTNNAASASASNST
CDK1/cyclin B, sequence (P06493 whole entry, species assumed): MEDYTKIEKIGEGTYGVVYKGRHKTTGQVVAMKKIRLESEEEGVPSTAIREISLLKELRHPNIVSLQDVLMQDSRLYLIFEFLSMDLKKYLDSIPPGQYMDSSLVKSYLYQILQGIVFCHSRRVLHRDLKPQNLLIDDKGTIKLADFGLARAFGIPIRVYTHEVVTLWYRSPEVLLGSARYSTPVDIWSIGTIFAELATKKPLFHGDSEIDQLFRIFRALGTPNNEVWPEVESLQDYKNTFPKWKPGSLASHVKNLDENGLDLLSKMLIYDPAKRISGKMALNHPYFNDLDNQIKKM
CDK1/cyclin B, sequence (P14635 whole entry partner, species assumed): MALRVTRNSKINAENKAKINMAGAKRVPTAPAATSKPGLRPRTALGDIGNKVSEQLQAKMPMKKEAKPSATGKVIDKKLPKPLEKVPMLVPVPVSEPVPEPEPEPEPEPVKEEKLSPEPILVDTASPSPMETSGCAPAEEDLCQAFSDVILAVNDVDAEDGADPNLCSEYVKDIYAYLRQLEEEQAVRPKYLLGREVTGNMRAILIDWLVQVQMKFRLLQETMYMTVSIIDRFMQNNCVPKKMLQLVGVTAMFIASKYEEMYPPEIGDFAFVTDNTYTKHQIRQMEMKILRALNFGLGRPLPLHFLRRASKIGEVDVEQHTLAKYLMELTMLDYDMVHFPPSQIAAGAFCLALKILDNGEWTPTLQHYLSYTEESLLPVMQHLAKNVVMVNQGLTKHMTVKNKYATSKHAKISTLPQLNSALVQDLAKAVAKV
CDK7/cyclin H, sequence (P50613 whole entry, species assumed): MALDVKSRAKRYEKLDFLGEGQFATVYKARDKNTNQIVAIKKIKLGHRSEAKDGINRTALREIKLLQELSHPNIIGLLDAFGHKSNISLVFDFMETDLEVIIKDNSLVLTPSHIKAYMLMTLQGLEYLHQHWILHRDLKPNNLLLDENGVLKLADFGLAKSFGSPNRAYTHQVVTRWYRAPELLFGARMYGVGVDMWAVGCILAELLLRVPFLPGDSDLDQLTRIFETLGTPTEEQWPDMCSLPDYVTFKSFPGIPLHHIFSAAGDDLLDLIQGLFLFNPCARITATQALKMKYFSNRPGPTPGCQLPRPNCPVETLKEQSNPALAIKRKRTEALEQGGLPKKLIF
CDK7/cyclin H, sequence (P51946 whole entry partner, species assumed): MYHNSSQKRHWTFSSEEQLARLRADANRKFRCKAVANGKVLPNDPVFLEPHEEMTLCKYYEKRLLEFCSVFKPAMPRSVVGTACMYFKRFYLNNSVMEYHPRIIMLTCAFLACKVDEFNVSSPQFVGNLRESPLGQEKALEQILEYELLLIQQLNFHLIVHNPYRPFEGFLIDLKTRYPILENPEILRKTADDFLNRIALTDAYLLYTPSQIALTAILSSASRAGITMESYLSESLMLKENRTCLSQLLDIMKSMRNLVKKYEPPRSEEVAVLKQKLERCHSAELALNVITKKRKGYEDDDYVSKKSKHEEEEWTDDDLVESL
T3 sequence (P49840 whole entry): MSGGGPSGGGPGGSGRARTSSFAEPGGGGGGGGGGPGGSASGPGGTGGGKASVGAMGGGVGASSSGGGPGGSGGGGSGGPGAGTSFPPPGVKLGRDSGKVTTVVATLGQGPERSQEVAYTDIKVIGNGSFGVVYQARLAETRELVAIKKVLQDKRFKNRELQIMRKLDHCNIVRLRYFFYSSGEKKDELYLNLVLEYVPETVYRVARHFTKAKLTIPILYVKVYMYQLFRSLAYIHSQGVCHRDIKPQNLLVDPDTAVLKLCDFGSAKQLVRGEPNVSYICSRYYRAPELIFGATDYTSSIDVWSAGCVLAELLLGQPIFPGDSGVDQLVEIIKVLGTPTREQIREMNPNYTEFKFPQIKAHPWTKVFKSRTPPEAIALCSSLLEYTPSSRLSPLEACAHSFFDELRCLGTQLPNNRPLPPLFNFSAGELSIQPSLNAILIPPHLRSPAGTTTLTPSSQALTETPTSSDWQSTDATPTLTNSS
Procedure for HIV-1: Representative compounds of the present invention were tested for antiviral activity against HIV-1 in human peripheral blood mononuclear cells (PBMCs) using the clinical paediatric HIV strains RoJo or WeJo. PBMCs were cultured under conditions which promote cell survival and HIV replication.
Fresh PBMCs, seronegative for HIV and HBV, were isolated from screened donors (Interstate Blood Bank, Inc. Memphis, Tenn.). Cells were pelleted/washed 2-3 times by low speed centrifugation and re-suspension in PBS to remove contaminating platelets. […] Banded PBMCs were gently aspirated from the resulting interface and subsequently washed with PBS by low speed centrifugation. […] The cells were allowed to incubate at 37° C. […] IL-2 is included in the culture medium to maintain the cell division initiated by the PHA mitogenic stimulation. PBMCs were maintained in this with bi-weekly medium changes until used in the assay protocol. Cells were kept in culture for a maximum of two weeks before being deemed too old for use in assays and discarded. Monocytes were depleted from the culture as the result of adherence to the tissue culture flask.
For the standard PBMC assay, PHA-P stimulated cells from at least two normal donors were pooled, diluted and plated in the interior wells of a 96-well round bottom microplate. Pooling of mononuclear cells from more than one donor was used to minimise the variability observed between individual donors, which results from quantitative and qualitative differences in HIV infection and overall response to the PHA and IL-2 of primary lymphocyte populations. Each plate contained virus/cell control wells (cells plus virus), experimental wells (drug plus cells plus virus) and compound control wells (drug plus media without cells, necessary for MTS monitoring of cytotoxicity). Since HIV-1 is not cytopathic to PBMCs, this allows the use of the same assay plate for both antiviral activity and cytotoxicity measurements. Test drug dilutions were prepared in microtiter tubes and each concentration was placed in appropriate wells using the standard format. A predetermined dilution of virus stock was placed in each test well (final MOI≅0.1). The PBMC cultures were maintained for seven days following infection at 37° C., 5% CO2 After this period, cell-free supernatant samples were collected for analysis of reverse transcriptase activity and/or HIV p24 content. Following removal of supernatant samples, compound cytotoxicity was measured by addition of MTS to the plates for determination of cell viability. Wells were also examined microscopically and any abnormalities were noted.
Tritiated thymidine triphosphate (^3H-TTP, 80 Ci/mmol, NEN) was received in 1:1 dH2O:Ethanol at 1 mCi/mL. Poly rA:oligo dT template:primer (Pharmacia) was prepared as a stock solution, followed by aliquoting and storage at −20° C. The RT reaction buffer was prepared fresh on a daily basis. The final reaction mixture was prepared by combining ^3H-TTP, dH2O, poly rA:oligo dT stock and reaction buffer. This reaction mixture was placed in a round bottom microtiter plate and supernatant containing virus was added and mixed. The plate was incubated at 37° C. for 60 minutes. Following incubation, the reaction volume was spotted onto DE81 filter-mats (Wallac), in a sodium phosphate buffer or 2×SSC (Life Technologies). Next they were washed in distilled water, in 70% ethanol, and then dried. Incorporated radioactivity (counts per minute, CPM) was quantified using standard liquid scintillation techniques.

With `CC(=O)NCc1ccc(Nc2nccc(-c3sc(=O)n(C)c3C)n2)cc1` [Compound 59, N-{4-[4-(3,4-Dimethyl-2-oxo-2,3-dihydro-thiazol-5-yl)-pyrimidin-2-ylamino]-benzyl}-acetamide], the Ki was 85 nM at CDK1/cyclin B; 210 nM on CDK7/cyclin H; 7 nM on CDK9/cyclin T1; 97 nM on CDK4/cyclin D1; 1.6 nM at CDK2/cyclin E; 160 nM on CDK2/cyclin A. In addition, the Ki on aurora A was 110 nM. Also, the IC50 at GSK3β was 18.3 nM. Besides, the “anti-HIV activity based on TI (therapeutic index: TC50/IC50)” value with HIV-1 was “Active”.
For `Cc1c(-c2ccnc(Nc3cccc(S(=O)(=O)NCc4ccccc4)c3)n2)sc(=O)n1C` [Compound 77, N-Benzyl-3-[4-(3,4-dimethyl-2-oxo-2,3-dihydro-thiazol-5-yl)-pyrimidin-2-ylamino]-benzenesulfonamide], the IC50 at GSK3α is 61.5 nM; on GSK3β, 70.9 nM.
Turning to `Cc1c(-c2ccnc(Nc3ccc(C#N)c(C(F)(F)F)c3)n2)sc(=O)n1C` [Compound 70, 4-[4-(3,4-Dimethyl-2-oxo-2,3-dihydro-thiazol-5-yl)-pyrimidin-2-ylamino]-2-trifluoromethyl-benzonitrile], the IC50 at GSK3α was determined as 3.6 nM; at GSK3β it was 6.8 nM.
`CCn1c(C)c(-c2ccnc(Nc3cccc([N+](=O)[O-])c3)n2)sc1=O` [Compound 23, 3-Ethyl-4-methyl-5-[2-(3-nitro-phenylamino)-pyrimidin-4-yl]-3H-thiazol-2-one]: the Ki at CDK1/cyclin B is 290 nM; at CDK7/cyclin H it was 1.4 nM; at CDK9/cyclin T1 it was 0.3 nM; on CDK4/cyclin D1, 870 nM; on CDK2/cyclin E, 16 nM; on CDK2/cyclin A it was 62 nM. The “anti-HIV activity based on TI (therapeutic index: TC50/IC50)” value in the data set with HIV-1 is listed as “Active”.
Consider `Cc1ccc(Nc2nccc(-c3sc(=O)n(C)c3C)n2)cc1[N+](=O)[O-]` [Compound 11, 3,4-Dimethyl-5-[2-(4-methyl-3-nitro-phenylamino)-pyrimidin-4-yl]-3H-thiazol-2-one], for which the Ki is 720 nM at CDK1/cyclin B; 36 nM on CDK7/cyclin H; 0.4 nM on CDK9/cyclin T1; 380 nM at CDK4/cyclin D1; 61 nM on CDK2/cyclin E; 220 nM at CDK2/cyclin A. In addition, the “anti-HIV activity based on TI (therapeutic index: TC50/IC50)” value in the data set with HIV-1 is given as “Active”.
Consider `CCn1c(C)c(-c2ccnc(Nc3ccc(OC)nc3)n2)sc1=O` [Compound 33, 3-Ethyl-5-[2-(6-methoxy-pyridin-3-ylamino)-pyrimidin-4-yl]-4-methyl-3H-thiazol-2-one], for which the Ki is 30 nM at CDK1/cyclin B; 23 nM at CDK7/cyclin H; 2.4 nM on CDK9/cyclin T1; 35 nM on CDK4/cyclin D1; 50 nM on CDK2/cyclin E; 760 nM on CDK2/cyclin A. In addition, the “anti-HIV activity based on TI (therapeutic index: TC50/IC50)” value with HIV-1 is “Active”.
For the compound `Cc1c(-c2ccnc(Nc3cccc(S(N)(=O)=O)c3)n2)sc(=O)n1C` [Compound 60, 3-[4-(3,4-Dimethyl-2-oxo-2,3-dihydro-thiazol-5-yl)-pyrimidin-2-ylamino]-benzenesulfonamide], the Ki was 21 nM at CDK1/cyclin B; 39 nM on CDK7/cyclin H; 0.3 nM at CDK9/cyclin T1; 22 nM on CDK4/cyclin D1; 3.4 nM on CDK2/cyclin E; 21 nM on CDK2/cyclin A. The Ki on aurora A is 30 nM. Also, the IC50 on GSK3β was 1.8 nM. In the data set on HIV-1, the “anti-HIV activity based on TI (therapeutic index: TC50/IC50)” value is reported as “Active”.
`Cc1c(-c2ccnc(Nc3ccc(N4CCNCC4)cc3)n2)sc(=O)n1C` [Compound 38, 3,4-Dimethyl-5-[2-(4-piperazin-1-yl-phenylamino)-pyrimidin-4-yl]-3H-thiazol-2-one]: the Ki at CDK1/cyclin B is 470 nM; at CDK7/cyclin H, 38 nM; on CDK9/cyclin T1 it was 10 nM; on CDK4/cyclin D1, 50 nM; on CDK2/cyclin E, 180 nM; at CDK2/cyclin A, 300 nM. Moreover, the Ki at aurora A was 88 nM. Moreover, the “anti-HIV activity based on TI (therapeutic index: TC50/IC50)” value in the data set with HIV-1 is “Active”.
With `Cc1c(-c2ccnc(Nc3ccc(F)cc3)n2)sc(=O)n1C` [Compound 2, 5-[2-(4-Fluoro-phenylamino)-pyrimidin-4-yl]-3,4-dimethyl-3H-thiazol-2-one], the Ki was 0.8 nM on CDK9/cyclin T1 and 350 nM at aurora A. Also, the “anti-HIV activity based on TI (therapeutic index: TC50/IC50)” value in the data set on HIV-1 is “Active”.

The values above are taken from US7902361B2, “Pyrimidin-4-yl-3, 4-thione compounds and their use in therapy” (Cyclacel Limited, priority 2003, dated 2011).
